Test results published in US20250361227A1, “INHIBITORS OF FLI1 AND ERG” (UNIVERSITY OF VIRGINIA PATENT FOUNDATION, priority 2022, published 2025).

Experiments:
ERG = biological target: T1, ERG (Homo sapiens, UniProt P11308); assay: Time-dependent ERG-DNA fluorescence polarization assay; conditions: time-dependent inhibition of ERG-DNA binding, irreversible inhibitor
T1 sequence (P11308 1-462 isoform P11308-1): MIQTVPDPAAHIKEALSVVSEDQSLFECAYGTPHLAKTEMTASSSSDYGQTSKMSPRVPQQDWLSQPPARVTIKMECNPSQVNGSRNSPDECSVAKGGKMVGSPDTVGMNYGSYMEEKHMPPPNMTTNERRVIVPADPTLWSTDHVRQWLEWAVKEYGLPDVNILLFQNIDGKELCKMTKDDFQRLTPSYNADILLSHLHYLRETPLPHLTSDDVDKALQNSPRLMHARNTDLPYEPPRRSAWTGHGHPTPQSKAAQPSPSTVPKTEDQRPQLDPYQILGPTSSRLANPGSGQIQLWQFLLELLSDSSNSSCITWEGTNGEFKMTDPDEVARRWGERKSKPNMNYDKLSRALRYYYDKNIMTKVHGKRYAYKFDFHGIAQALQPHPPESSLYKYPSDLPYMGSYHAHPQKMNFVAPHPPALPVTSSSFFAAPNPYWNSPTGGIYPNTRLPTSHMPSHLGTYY
Procedure: To assay such compounds time-dependent inhibition of ERG-DNA binding was recorded using a fluorescence polarization (FP) based assay and the rates were fitted to derive KI and kinact for the compounds which were ranked based on the kinact/KI values as has been described previously.
These compounds were assayed using the time-dependent ERG-DNA assay described above. Importantly, time-dependent inhibition was observed, a hallmark of irreversible inhibitors. […] ERG inhibitors show time-dependent inhibition characteristics of irreversible inhibitors based on the following formula: […]
Kobs values were determined from the initial slope for the first 15 minutes. NMR chemical shift perturbation data was consistent with 2 binding sites on ERG. FIG. 14A and FIG. 14B show selected changes in chemical shift for resonances in the ^15N-^1H HSQC NMR spectrum of ERGi upon addition of KK-36-25.

[1] = test system: Ewing's sarcoma cell lines; assay: Growth of Ewing's sarcoma cell lines; assay type: cell-based; conditions: read-out: IC50 values for inhibition of the growth
Procedure: (§1) The compounds of formula (I), in particular those in Table 3, were tested for their effects on the growth of Ewing sarcoma cell lines as well as a rhabdomyosarcoma cell line as a control. The inhibitors are active against Ewing sarcoma cell lines with sub μM EC50 values but not active with the rhabdomyosarcoma cell line. The relative activity of the compounds in the biochemical assay was also observed in the cellular data, consistent with an on-target mechanism of action. […] The inhibitor decreases expression of the two genes activated by EWS-FL11 and activates the expression of the gene repressed by EWS-FLI1, consistent with an on-target mechanism of action. The inhibitors have also been evaluated across a panel of leukemia cell lines and see selective activity on cell lines with an ERG and/or FLI1 dependence.
Evaluation of ERG inhibitors on Ewing's sarcoma cell lines. FIGS. 16A-16D show the results of treatment of Ewing's sarcoma cell lines with the bivalent ERG inhibitors. […] Ewing's sarcoma has EWS-FLI1 and EWS-ERG fusions (FLI1 is highly homologous to ERG). ERG inhibitors show submicromolar EC50 values for Ewing's sarcoma cell lines. […] Importantly, for the unrelated rhabdomyosarcoma cell line included in this panel, there was minimal inhibition of growth.

leukemia cell lines = assay: Panel of leukemia cell lines; assay type: cell-based; conditions: Jurkat, RS4-11, Kasumi, K562, THP-1
Procedure: as §1
ERG inhibitor effects on leukemia cell lines. FIG. 17A-17D and FIG. 18A-18C show the effects of the ERG inhibitor on several leukemia cell lines. […] ERG inhibitors show efficacy against T-ALL cell line (Jurkat) and selective activity against specific leukemia cell lines. […] As expected from previous literature indicating a strong dependence on ERG for T-ALL, the T-ALL cell line Jurkat is quite sensitive to the ERG inhibitors (sub μM IC50 values). […]

[2] = biological target: T2, ERG auto-inhibited construct (ERGi, 272-388) (Homo sapiens, UniProt P11308); assay: ERGi-DNA fluorescence polarization assay; assay type: binding; conditions: optimized fragment analogs, values in text; read-out: IC50
T2 construct: made in house
T2 sequence (P11308 272-388 isoform P11308-1): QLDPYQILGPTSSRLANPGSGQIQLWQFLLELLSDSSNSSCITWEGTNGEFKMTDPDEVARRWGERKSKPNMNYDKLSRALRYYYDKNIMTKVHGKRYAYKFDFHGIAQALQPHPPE
Excerpt: (§2) The constructs of ERG which retain full auto-inhibition were previously delineated (17). Fluorescence polarization-based assays for DNA binding were then developed, which were used for screening. In addition to the auto-inhibited form of ERG, it was important to also have an assay using its Ets domain, i.e., the uninhibited form of the protein, to compare action of compounds. Compounds which are active against the auto-inhibited form of the protein but have little or no effect on the uninhibited form were sought, indicating their binding is mediated by the non-conserved auto-inhibitory modules rather than the highly conserved Ets domain. […] Fragment screening is an alternative approach that has gained a great deal of favor in the pharma industry recently that employs relatively small molecules (22). […] The auto-inhibited construct was screened first with a dose dependent screen of actives with ERGi using fluorescein- and Texas Red-DNA and then the positive hits were counter-screened with the ERG Ets domain, specifically a screen of actives with ERGu, the latter screen serving to remove compounds which bind to the conserved Ets domain or to DNA, which left 26 compounds which inhibit the auto-inhibited construct of ERG binding to DNA but not the uninhibited ERG (the Ets domain) binding to DNA. ERGi is the auto-inhibited construct of ERG (272-388) and ERGu is the uninhibited DNA binding domain construct of ERG (289-378). […] The IC50 of the validated hits was 0.6-7 mM. […] Importantly, chemical shift changes upon compound addition are observed in the ^15N-^1H HSQC NMR spectra of ERG for amino acids located in the auto-inhibitory modules of ERG, indicating they do interact with these regions of the protein. It is critical to also develop assays for other ETS family members to assess the specificity of action of the compounds identified in the screen, so auto-inhibited constructs were expressed and assays were developed for five other ETS family members and assays for additional members of the family were also developed.
(§3) Using a standard medicinal chemistry approach, further optimization of the fragment hits were pursued. The specificity of parent fragments and their optimized derivatives with 5 additional Ets proteins which are representatives of 5 additional sub-families, were evaluated, as shown in Table 2. […] NA in Table 2 represents no activity up to the 2000 μM maximum concentration. >number in Table 2 represents some activity at highest concentrations so data fit with a lower bound to obtain an estimate of IC50.

[3] = biological target: T3, ERG isolated Ets domain (ERGu, 289-378) (Homo sapiens, UniProt P11308); assay: Fluorescence polarization DNA binding assay, uninhibited ERG; conditions: FP DNA binding, NA = no activity up to 2000 μM, >number = estimate from fit with lower bound
T3 construct: made in house
T3 sequence (P11308 289-378 isoform P11308-1): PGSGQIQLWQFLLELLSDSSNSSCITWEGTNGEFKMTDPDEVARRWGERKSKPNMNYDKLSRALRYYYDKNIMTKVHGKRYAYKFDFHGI
Excerpt: as §2, §3

ELK1 = biological target: T4, ELK1 (Homo sapiens, UniProt P19419); assay: Fluorescence polarization DNA binding assay, auto-inhibited ELK1; conditions: auto-inhibited construct; NA = no activity up to 2000 μM; >number = estimate from fit with lower bound
T4 sequence (P19419 1-428): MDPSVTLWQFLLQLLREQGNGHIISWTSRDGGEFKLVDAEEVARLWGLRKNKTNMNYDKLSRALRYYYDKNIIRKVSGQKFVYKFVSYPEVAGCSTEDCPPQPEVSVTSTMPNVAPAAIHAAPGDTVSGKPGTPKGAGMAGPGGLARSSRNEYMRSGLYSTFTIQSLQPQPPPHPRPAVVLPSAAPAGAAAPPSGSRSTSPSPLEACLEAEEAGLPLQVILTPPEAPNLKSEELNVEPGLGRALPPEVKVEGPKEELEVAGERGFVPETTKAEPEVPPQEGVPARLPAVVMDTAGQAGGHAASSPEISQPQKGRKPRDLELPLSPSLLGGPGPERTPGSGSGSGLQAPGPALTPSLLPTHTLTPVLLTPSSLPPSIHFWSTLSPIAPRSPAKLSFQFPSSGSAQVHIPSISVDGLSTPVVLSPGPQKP
Excerpt: as §2, §3

ELF3 = biological target: T5, ELF3 (Homo sapiens, UniProt P78545); assay: Fluorescence polarization DNA binding assay, auto-inhibited ELF3; conditions: auto-inhibited construct; NA = no activity up to 2000 μM; >number = estimate from fit with lower bound
T5 sequence (P78545 1-371): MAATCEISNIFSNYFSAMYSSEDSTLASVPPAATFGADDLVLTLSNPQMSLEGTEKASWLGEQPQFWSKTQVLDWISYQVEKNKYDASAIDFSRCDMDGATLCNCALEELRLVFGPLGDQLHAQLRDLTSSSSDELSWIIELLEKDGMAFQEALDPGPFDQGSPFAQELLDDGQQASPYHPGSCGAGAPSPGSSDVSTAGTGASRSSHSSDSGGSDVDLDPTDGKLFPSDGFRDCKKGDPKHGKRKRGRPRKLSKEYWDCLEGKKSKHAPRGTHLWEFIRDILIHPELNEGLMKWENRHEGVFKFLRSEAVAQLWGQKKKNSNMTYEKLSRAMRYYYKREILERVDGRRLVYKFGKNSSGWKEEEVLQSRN
Excerpt: as §2, §3

Ets1 = biological target: T6, Ets1 (Homo sapiens, UniProt P14921); assay: Fluorescence polarization DNA binding assay, auto-inhibited Ets-1; conditions: auto-inhibited construct; NA = no activity up to 2000 μM; >number = estimate from fit with lower bound
T6 sequence (P14921 1-441): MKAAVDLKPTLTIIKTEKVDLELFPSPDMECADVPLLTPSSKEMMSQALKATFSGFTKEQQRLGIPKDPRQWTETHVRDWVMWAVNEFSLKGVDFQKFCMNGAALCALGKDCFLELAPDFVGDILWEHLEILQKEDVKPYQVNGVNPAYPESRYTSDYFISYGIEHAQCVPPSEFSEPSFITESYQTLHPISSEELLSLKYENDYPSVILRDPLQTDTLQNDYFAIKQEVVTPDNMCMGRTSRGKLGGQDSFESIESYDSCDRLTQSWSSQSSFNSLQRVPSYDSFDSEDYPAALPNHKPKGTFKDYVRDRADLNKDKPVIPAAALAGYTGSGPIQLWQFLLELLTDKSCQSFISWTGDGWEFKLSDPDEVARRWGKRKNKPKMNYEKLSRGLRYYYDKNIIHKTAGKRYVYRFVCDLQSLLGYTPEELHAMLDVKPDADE
Excerpt: as §2, §3

Spi1 (PU.1) = Spi1 (PU.1) (Homo sapiens, UniProt P17947); assay: Fluorescence polarization DNA binding assay, auto-inhibited PU.1; conditions: auto-inhibited construct; NA = no activity up to 2000 μM; >number = estimate from fit with lower bound
Excerpt: as §2, §3

ETV6 (TEL) = biological target: T7, ETV6 (TEL) (Homo sapiens, UniProt P41212); assay: Fluorescence polarization DNA binding assay, auto-inhibited ETV6; conditions: auto-inhibited construct; NA = no activity up to 2000 μM; >number = estimate from fit with lower bound
T7 sequence (P41212 1-452): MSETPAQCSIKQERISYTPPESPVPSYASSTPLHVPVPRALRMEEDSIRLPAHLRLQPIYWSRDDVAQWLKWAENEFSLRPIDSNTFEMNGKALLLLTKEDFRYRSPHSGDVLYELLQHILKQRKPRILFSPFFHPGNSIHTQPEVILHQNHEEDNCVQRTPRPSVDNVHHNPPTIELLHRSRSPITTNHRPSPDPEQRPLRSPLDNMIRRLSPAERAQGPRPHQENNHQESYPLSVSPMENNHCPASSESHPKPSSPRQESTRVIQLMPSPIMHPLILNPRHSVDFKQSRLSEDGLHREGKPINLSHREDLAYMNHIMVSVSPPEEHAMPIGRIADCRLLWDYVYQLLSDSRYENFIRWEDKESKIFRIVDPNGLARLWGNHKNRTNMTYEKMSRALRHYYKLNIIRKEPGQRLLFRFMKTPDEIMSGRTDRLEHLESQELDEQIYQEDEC
Excerpt: as §2, §3

| Compound | Ki (ERG) | IC50 [1] | selectivity across leukemia cell lines (leukemia cell lines) | IC50 [2] | IC50 [3] | IC50 (ELK1) | IC50 (ELF3) | IC50 (Ets1) | IC50 (Spi1 (PU.1)) | IC50 (ETV6 (TEL)) |
| --- | --- | --- | --- | --- | --- | --- | --- | --- | --- | --- |
| Cc1ccc(-c2nc3cc(Cl)c(NC(=O)CCOCCn4cc(COCCOCCOc5ccc(S(=O)(=O)C6CCN(C(=O)/C=C/c7cc8ccccc8o7)C6)cc5)nn4)cc3o2)cc1 (centres unmarked) [KK-36-25] | 6.3 µM | ≤ 1 µM | selective for Leukemia cell lines dependent on ERG | – | – | – | – | – | – | – |
| Cc1ccc(-c2nc3cc(Cl)c(NC(=O)CCOCCn4cc(COCCOCCOCCOc5ccc(S(=O)(=O)C6CCN(C(=O)/C=C/c7cc8ccccc8o7)C6)cc5)nn4)cc3o2)cc1 (centres unmarked) [KK-36-84] | – | ≤ 1 µM | – | – | – | – | – | – | – | – |
| COc1ccc(-c2c(C(C)=O)oc3c(OC)cccc23)cc1 [KK-16-69] | – | – | – | 99 µM | > 2000 µM | > 2000 µM | > 2000 µM | > 2000 µM | > 5700 µM | > 7800 µM |
